Laboratory results as given in PubChem BioAssay AID330 (DTP/NCI, 2004).
Where “and” joins values, the source holds several entries; their conditions need not be identical. Identical values can stand only once. Inconclusive results and toxic doses are left out.

Test system: P388 leukemia ip, CD2F1 mice, survival T/C
Experiment: NCI In Vivo Anticancer Drug Screen. Data for tumor model P388 Leukemia (intraperitoneal) in CD2F1 (CDF1) mice
Conditions: endpoint: median survival time, higher = longer survival
How it was run: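 Mice carrying the transplanted tumor received test compound or vehicle. Survival was recorded in each group, and the value is the treated-group measurement divided by that of the vehicle-treated control group.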

[1] = dose: 50.0 mg/kg/injection, schedule: Q01DX009 (ip), vehicle: saline with Tween-80
[2] = dose: 100.0 mg/kg/injection, schedule: Q01DX009 (ip), vehicle: saline with Tween-80
[3] = dose: 200.0 mg/kg/injection, schedule: Q01DX009 (ip), vehicle: saline with Tween-80
[4] = dose: 50.0 mg/kg/injection, schedule: Q01DX005 (ip), vehicle: Klucel (hydroxypropylcellulose) (HPC)
[5] = dose: 100.0 mg/kg/injection, schedule: Q01DX005 (ip), vehicle: Klucel (hydroxypropylcellulose) (HPC)
[6] = dose: 200.0 mg/kg/injection, schedule: Q01DX005 (ip), vehicle: Klucel (hydroxypropylcellulose) (HPC)
[7] = dose: 25.0 mg/kg/injection, schedule: Q01DX009 (ip), vehicle: saline
[8] = dose: 50.0 mg/kg/injection, schedule: Q01DX005 (ip), vehicle: saline with Tween-80
[9] = dose: 50.0 mg/kg/injection, schedule: Q01DX009 (ip), vehicle: suspension in saline
[10] = dose: 100.0 mg/kg/injection, schedule: Q01DX009 (ip), vehicle: suspension in saline
[11] = dose: 200.0 mg/kg/injection, schedule: Q01DX009 (ip), vehicle: suspension in saline
[12] = dose: 100.0 mg/kg/injection, schedule: Q04DX002 (ip), vehicle: saline
[13] = dose: 200.0 mg/kg/injection, schedule: Q04DX002 (ip), vehicle: saline
[14] = dose: 60.0 mg/kg/injection, schedule: Q01DX005 (ip), vehicle: saline with Tween-80
[15] = dose: 120.0 mg/kg/injection, schedule: Q01DX005 (ip), vehicle: saline with Tween-80
[16] = dose: 240.0 mg/kg/injection, schedule: Q01DX005 (ip), vehicle: saline with Tween-80
[17] = dose: 50.0 mg/kg/injection, schedule: Q01DX009 (ip), vehicle: Klucel (hydroxypropylcellulose) (HPC)
[18] = dose: 100.0 mg/kg/injection, schedule: Q01DX009 (ip), vehicle: Klucel (hydroxypropylcellulose) (HPC)
[19] = dose: 6.25 mg/kg/injection, schedule: Q01DX009 (ip), vehicle: saline
[20] = dose: 12.5 mg/kg/injection, schedule: Q01DX009 (ip), vehicle: saline
[21] = dose: 25.0 mg/kg/injection, schedule: Q01DX009 (ip), vehicle: Klucel (hydroxypropylcellulose) (HPC)

For CC(=NCCN=C(C)c1cc(C)ccc1O)c1cc(C)ccc1O, the T/C (dose: 100.0 mg/kg/injection, schedule: Q04DX002 (ip), vehicle: Klucel (hydroxypropylcellulose) (HPC)) was 101 % of control, the T/C (dose: 200.0 mg/kg/injection, schedule: Q04DX002 (ip), vehicle: Klucel (hydroxypropylcellulose) (HPC)) was 100 % of control and the T/C (dose: 400.0 mg/kg/injection, schedule: Q04DX002 (ip), vehicle: Klucel (hydroxypropylcellulose) (HPC)) was 99 % of control.

CC(C)(C)N=C(CCN1CCOCC1)Nc1cccc(Cl)c1 was tested, and the T/C [1] was 100 % of control, the T/C [2] was 96 % of control and the T/C [3] was 97 % of control.

In the case of CN(C)c1ccc(-c2nc3c4ccccc4c4ccccc4c3[nH]2)cc1, the T/C [1] is reported as 105 % of control, the T/C [2] is reported as 90 % of control and the T/C [3] is reported as 87 % of control.

With CSCCC(NCC(=O)Nc1ccc(S(=O)(=O)c2ccc(NC(=O)CNC(CCSC)C(=O)O)cc2)cc1)C(=O)O (centres undefined) the T/C [4] was 100 % of control, the T/C [5] was 101 % of control and the T/C [6] was 101 % of control.

With COC(=O)[C@@H]1N2C(=O)C=NO[C@H]2SC1(C)C the T/C (dose: 60.0 mg/kg/injection, schedule: Q01DX005 (ip), vehicle: saline) was 95 % of control, the T/C (dose: 120.0 mg/kg/injection, schedule: Q01DX005 (ip), vehicle: saline) was 98 % of control and the T/C (dose: 240.0 mg/kg/injection, schedule: Q01DX005 (ip), vehicle: saline) was 104 % of control.

With C[n+]1ccc(-c2nc(-c3cc[n+](C)cc3)nc(-c3cc[n+](C)cc3)n2)cc1 the T/C (dose: 25.0 mg/kg/injection, schedule: Q01DX001 (ip), vehicle: saline with Tween-80) was 102 % of control, the T/C (dose: 50.0 mg/kg/injection, schedule: Q01DX001 (ip), vehicle: saline with Tween-80) was 99 % of control and the T/C (dose: 100.0 mg/kg/injection, schedule: Q01DX001 (ip), vehicle: saline with Tween-80) was 108 % of control.

For O=C(O)CSC(CC(=O)O)C(=O)O (centres undefined), the T/C [7] was 97 % of control, the T/C (dose: 50.0 mg/kg/injection, schedule: Q01DX009 (ip), vehicle: saline) was 96 % of control and the T/C (dose: 100.0 mg/kg/injection, schedule: Q01DX009 (ip), vehicle: saline) was 100 % of control. The T/C (dose: 200.0 mg/kg/injection, schedule: Q01DX009 (ip), vehicle: saline) was 88 % of control.

For CN(Cc1c(O)ccc2ccccc12)Cc1c(O)ccc2ccccc12, the T/C [8] was 97 % of control, the T/C (dose: 100.0 mg/kg/injection, schedule: Q01DX005 (ip), vehicle: saline with Tween-80) was 109 % of control and the T/C (dose: 200.0 mg/kg/injection, schedule: Q01DX005 (ip), vehicle: saline with Tween-80) was 100 % of control.

With COc1ccc(C(OC(C)(C)C)c2cc(C(C)(C)C)cc(C(C)(C)C)c2O)cc1 (centres undefined) the T/C (dose: 50.0 mg/kg/injection, schedule: Q01DX005 (ip), vehicle: distilled water + alcohol) was 101 % of control, the T/C (dose: 100.0 mg/kg/injection, schedule: Q01DX005 (ip), vehicle: distilled water + alcohol) was 104 % of control and the T/C (dose: 200.0 mg/kg/injection, schedule: Q01DX005 (ip), vehicle: distilled water + alcohol) was 97 % of control.

CC(CCc1ccc(O)cc1)NCCc1ccc(O)c(O)c1 (centres undefined) was tested, and the T/C [9] was 100 % of control, the T/C [10] was 104 % of control and the T/C [11] was 115 % of control.

With CN(C(=S=O)c1ccccc1)c1ccc([N+](=O)[O-])cc1 the T/C (dose: 50.0 mg/kg/injection, schedule: Q04DX002 (ip), vehicle: saline) was 95 % of control, the T/C [12] was 95 % of control and the T/C [13] was 96 % of control.

With CCOC(=O)C(=CNc1cc(C)c2[nH]c3ccc(Br)cc3c2c1C)C(=O)OCC the T/C [14] was 93 % of control, the T/C [15] was 93 % of control and the T/C [16] was 86 % of control and 93 % of control.

NN1C(=O)c2ccc3c4c(ccc(c24)C1=O)CC3 was tested, and the T/C [9] was 91 % of control, the T/C [10] was 102 % of control and the T/C [11] was 88 % of control. The T/C (dose: 400.0 mg/kg/injection, schedule: Q01DX009 (ip), vehicle: suspension in saline) was 99 % of control.

For COc1cc2c(cc1OC)[C@H](C(=O)O)[C@@H](c1ccc(OC(C)C)c(OC)c1)N(C)C2=O, the T/C [14] was 95 % of control, the T/C [15] was 100 % of control and the T/C [16] was 100 % of control.

With COc1cc2c(cc1[N+](=O)[O-])C(=O)C(Br)(Br)CCC2 the T/C [17] was 116 % of control and the T/C [18] was 119 % of control.

For CCN(CC)CCN1C(=O)c2cccc3cc(OC)cc(c23)C1=O, the T/C (dose: 25.0 mg/kg/injection, schedule: Q01DX005 (ip), vehicle: saline) was 104 % of control, the T/C (dose: 50.0 mg/kg/injection, schedule: Q01DX005 (ip), vehicle: saline) was 100 % of control and the T/C (dose: 100.0 mg/kg/injection, schedule: Q01DX005 (ip), vehicle: saline) was 107 % of control.

With FC(F)(F)C1(C(F)(F)F)OP2(c3ccccc3)(OC(C(F)(F)F)(C(F)(F)F)c3ccccc32)c2ccccc21 the T/C [4] was 98 % of control, the T/C [5] was 91 % of control and the T/C [6] was 100 % of control.

CCCCN=NNCCCC was tested, and the T/C (dose: 12.5 mg/kg/injection, schedule: Q01DX005 (ip), vehicle: saline with Tween-80) was 110 % of control and the T/C [8] was 151 % of control.

With ClCCN(CCCl)c1ccc(CN2CCCCCC2)cc1 the T/C [19] was 111 % of control, the T/C [20] was 114 % of control and the T/C [7] was 116 % of control.

For CCCCCCCCCCCCCCCCCC(=O)OCCCCCCCCCCCCC, the T/C (dose: 100.0 mg/kg/injection, schedule: Q01DX001 (ip), vehicle: other) was 95 % of control, the T/C (dose: 200.0 mg/kg/injection, schedule: Q01DX001 (ip), vehicle: other) was 100 % of control and the T/C (dose: 400.0 mg/kg/injection, schedule: Q01DX001 (ip), vehicle: other) was 95 % of control.

For CC(=O)OC(c1ccccc1)N(Cc1ccccc1)N=O (centres undefined), the T/C (dose: 12.5 mg/kg/injection, schedule: Q01DX009 (ip), vehicle: distilled water + Tween-80) was 111 % of control, the T/C (dose: 25.0 mg/kg/injection, schedule: Q01DX009 (ip), vehicle: distilled water + Tween-80) was 111 % of control and the T/C (dose: 50.0 mg/kg/injection, schedule: Q01DX009 (ip), vehicle: distilled water + Tween-80) was 118 % of control. For the same compound, the T/C (dose: 100.0 mg/kg/injection, schedule: Q01DX009 (ip), vehicle: distilled water + Tween-80) was 117 % of control and the T/C (dose: 200.0 mg/kg/injection, schedule: Q01DX009 (ip), vehicle: distilled water + Tween-80) was 119 % of control.

In the case of CCOC(=O)C(C#N)C(c1ccc2c(c1)OCO2)N(CCO)CCO (centres undefined), the T/C [4] is reported as 93 % of control, the T/C [5] is reported as 99 % of control and the T/C [6] is reported as 99 % of control.

With Cc1cc2c(c(C#N)c1C)NC(=O)CN=C2c1ccccc1F the T/C [14] was 96 % of control, the T/C [15] was 98 % of control and the T/C [16] was 95 % of control.

For C=C/C=C/NC(=O)N1CCCC1, the T/C (dose: 100.0 mg/kg/injection, schedule: Q04DX002 (ip), vehicle: suspension in saline) was 102 % of control, the T/C (dose: 200.0 mg/kg/injection, schedule: Q04DX002 (ip), vehicle: suspension in saline) was 102 % of control and the T/C (dose: 400.0 mg/kg/injection, schedule: Q04DX002 (ip), vehicle: suspension in saline) was 105 % of control.

NC1CCc2cc(O)c(O)cc2C1 (centres undefined) was tested, and the T/C [12] was 108 % of control and 96 % of control, the T/C [13] was 105 % of control and 109 % of control and the T/C (dose: 400.0 mg/kg/injection, schedule: Q04DX002 (ip), vehicle: saline) was 109 % of control.

With CCCCCCCCC[N+]1(CC)CCCC1 the T/C [19] was 117 % of control, the T/C [20] was 117 % of control and the T/C [7] was 91 % of control.

With CC(=O)OC(C(=O)CBr)C(OC(C)=O)C(OC(C)=O)C(=O)CBr (centres undefined) the T/C (dose: 12.5 mg/kg/injection, schedule: Q01DX009 (ip), vehicle: Klucel (hydroxypropylcellulose) (HPC)) was 114 % of control and the T/C [21] was 96 % of control.

CN(C)c1nc(N(C)C)nc([N+]23CN4CN(CN(C4)C2)C3)n1 was tested, and the T/C [1] was 114 % of control, the T/C [2] was 108 % of control and the T/C [3] was 114 % of control.

With CCOC(CNC(C)c1ccc2cc(OC)c(OC)cc2c1)OCC (centres undefined) the T/C [21] was 100 % of control, the T/C [17] was 114 % of control and the T/C [18] was 116 % of control. The T/C (dose: 200.0 mg/kg/injection, schedule: Q01DX009 (ip), vehicle: Klucel (hydroxypropylcellulose) (HPC)) was 121 % of control.
